# Measurements from patent US20090042783A1, “APO E ANALOGS AND METHODS FOR THEIR USE” (priority 2004, published 2009).
# Where two headings read alike, the source gives them in different places. Marks after values point to notes of the source that are not given here. Non-standard residues stand in square brackets, D forms with d. Aib = CC(C)(N)C(=O)O
# Key:
# [1] = system: BV2 murine microglial cells
# Procedure: For Applicants preliminary work, the two most common PTDs, TAT and penetratin, were used.
# Cell Culture: BV-2, a well-characterized murine microglial cell line (Bochinni, 1992), is cultured in high glucose content DMEM supplemented with 1% penicillin/streptomycin, 10% fetal calf serum, 1% nonessential amino acids, and 1% sodium pyruvate. Cells are grown to confluency; trypsinized; spun down; resuspended in serum-free OptiMEM containing 1% N2 supplement, 1% penicillin/streptomycin, 1% nonessential amino acids, and 1% sodium pyruvate; and plated at a concentration of 20,000 cells/well to remove any nonadherent cells and serum.
# Supernatant is collected 24 and/or 48 h after LPS stimulation and assayed for nitrite.
# Quantification of Nitric Oxide (NO): Accumulation of nitrite (stable end product of NO production) in the medium is measured by colometric Griess reagent system (Promega); the absorbance is determined at 540 nm.
# Cell Viability Assay: Cell viability is measured using a nonradioactive cell viability assay (cell titer 96 AQ, Promega). The assay measures the bioreduction of MTS (3-(4,5-dimethylthiazole-2-)-5-(3-carboxymethoxyphenyl)-2-(4-sulfophenyl)-2H-tetrazolium by viable cells into formazan. The absorbance of the calorimetric assay is measured at λ 490 nm. Viability is assessed and used to normalize the nitrite data.
# [2] = system: BV2 microglial cells
# Procedure: For suppression of inflammation profiling, each peptide analog was tested at a final concentration of 0.1, […], 1, 3, 5, 10 and 25 μM in an LPS induced BV2 microglial cell release of NO and/or TNFα. […] The modification was a biotin label on the apoE peptide (biotin-[…]-amide) which allows detection with ^125I-streptavidin (ISA, Amersham).
# In overview, BV-2 cells are plated in 96 well plates in complete media and then the media is replaced the next day with serum free media or reduced serum (1%) media. […] Each concentration of peptide (standard initial concentrations are 0.1, 0.5, 1, 3, 10 and 25 μM) is added to at least 6 wells of cells (e.g. 6 wells get 0.1 μM peptide, 6 wells get 0.5 μM peptide, etc.) and data are averaged from all 6 wells. […] (2001). Cell viability is also measured with an MTT assay (Laskowitz et al. 2001).
# [3] = system: mice with traumatic brain injury; experiment: Closed head injury model of traumatic brain injury (rotorod, Morris Water Maze); conditions: for In vivo Therapeutic window time expanded?: mouse
# Procedure: C57Bl/6J male mice (The Jackson Laboratory, ME), 12-16 weeks of age and weighing 24-32 g, are used for all experiments. Anesthesia is first induced with isoflurane in 30% O2/balance N2. The trachea is intubated and the lungs mechanically ventilated with 1.6% isoflurane in 30% O2/balance N2. Temperature is monitored with a rectal probe and maintained at 36.5° C. with a heat lamp. The right internal jugular vein is cannulated with silicone catheter. […] Intubated animals are then placed prone on a molded acrylic cast (FIG. 6A). […] The scalp is incised and the skull exposed. A concave 3 mm metallic disc is secured to the skull surface (with the concave surface in juxtaposition to the skull) by an adhesive. […] The disc is placed directly midline just caudal to bregma (FIG. 6B). […] The mice are positioned in a stereotactic frame. Although the stereotactactic frame helps to stabilize the animal and exactly calibrate the vertical displacement on impact (3 mm), ear bars are not used due to a much higher rate of skull fracture (or brainstem injury if the head rotates around the axis of the ear bars during impact). The piston is discharged at 6.8±0.2 m/s so as to impact the skull in the acrylic mold to move a maximum of approximately 3 mm (FIG. 6C). Inspired isoflurane is decreased to 0.7% immediately after impact. The scalp was infiltrated with lidocaine and closed with suture. Ophthalmic ointment was applied to the eyes for protection. The incidence of skull fracture is low (approximately 10%), as the metal disk helps to diffuse the impact, and the absence of ear bar fixation allows for displacement of the entire head. Mice were excluded if a depressed skull fracture was observed (incidence of approximately 10%). The animals are allowed to recover spontaneous ventilation then extubated. […] In these mice, arterial blood pressure, blood gas and glucose measurement at baseline, immediately after injury, and 15 minutes after injury are monitored during the recovery period.
# Briefly, baseline performance on rotorod is established before the mice are intubated, the skin over the scalp reflected and a controlled cortical impact from a pneumatic impactor given on the midline. The skin is closed with surgical clips and the animals are constantly monitored until awake from anesthesia and then hourly for the next 4 hours. […] Performance on rotorod is tested at 24 hours post impaction and then every day for 5 days and data is presented as described. Groups of 12 mice are used for each compound at 0.5×MTD. […] Novel peptides and non-peptide analogs are also given by tail vein injection.
# Daily Rotarod (RR) testing was used to assess short term motor and cerebellar deficit following head injury (Hamm et al., 1994). Mice were held by their tails and placed on the RR facing the wall by using gentle swinging motion while running in a constant speed mode.
# [4] = system: peritoneal macrophages; experiment: Peritoneal macrophage production of NO, TNFα and IL-6 induced by MOG or LPS/IFN-γ; format: cell-based, mouse
# Procedure: For this purpose, three mice with clinical scores of 0 and three with clinical scores of 4 at 30 dpi (day post-immunization) were used for preparation of peritoneal macrophage cultures. Macrophages were collected after peritoneal lavage with 3 ml heparin (10 U/ml)-containing PBS and then seeded to 96-well microplates at a density of 1×10^5 cells/well in Dulbecco's MEM containing 10% fetal bovine serum, 2 mM L-glutamine serum, 1% HEPES and 100 U/ml penicillin and 100 μg/ml streptomycin, 37° C. in a humidified incubator with 5% CO2. 24 h later, the serum-containing medium was removed and cells were washed once with serum-free medium. To examine the differentiated response of macrophage to immune stimulators, macrophages obtained from mice with clinical scores of 0 or 4 were exposed to serial concentrations of IFN-γ/LPS or MOG35-55 peptide. […] Media were collected at 45 h or 72 h, and analyzed by ELISA for […] and IL-6 or for nitric oxide (NO) as detailed below.
# As the stable end product of nitric oxide release, nitrite levels in conditioned media were determined by injecting 50 μl media sample into a Sievers 280 NOA analyzer (Boulder, Colo., USA). Total protein (μg/well) was measured using the BCA method (Pierce, Rockford, Ill., USA) according to manufacturer's instructions with BSA as standard. BCA values were measured using a Molecular Devices Thermomax Microplate Reader (Menlo Park, Calif., USA) at OD562. Nitric oxide levels ere expressed as μM NO2—/mg protein.
# For cytokine assays, supernatants were collected 45 h after […]/LPS or MOG treatments and quantitative ELISAs using selected pairs of monoclonal antibodies (as recommended by the manufacturer Biosource) were performed to quantify the cytokines, TNF-α and IL-6. For TNF-α ELISA, 96-well ELISA plates were pre-coated with rabbit anti-mouse polyclonal to TNF-α as capture antibodies for 18 h at 2-8° C. and then blocked for 2 h at room temperature. The wells were incubated with samples or mouse TNF-α standards. Following incubation for 2 h at room temperature, the wells were washed, after which hamster anti-mouse TNF-α biotinylated secondary antibody and horseradish peroxidase conjugate were added. Tetramethylbenzidine (TMB) solution was then added, and peroxidase-catalyzed color change was stopped by acidification with 2 NH2SO4. The plates were scanned at wavelength 450 nm and the absorbance were measured. The results are expressed as the mean concentration (pg/ml) ±SEM.
# For IL-6 ELISA, rat anti-mouse monoclonal to IL-6 was used as capture antibody, and biotinylated rat anti-mouse monoclonal to IL-6 as detection antibody. The rest of procedure is identical to that of TNF-α ELISA.
# [5] = system: mice infected with C. rodentium; experiment: C. rodentium colitis; format: in vivo; conditions: for Colon wt (% Total Body wt) / Histology Score / Body wt (% Total Body wt): WT mice, 10 days; for Body wt (% Total Body wt): 0.1% BEC or 2.5% DFMO
# Description: C. rodentium colitis: Of the two existing mouse models (Gobert A P et al., 2004; Cheng Y. et al., 2003), the C. rodentium model was selected because it produces a Th1-predominant mucosal inflammation that has histologic changes similar to human IBD (Higgins L M et al., 1999). In this model, mice are infected by oral gavage with C. rodentium (Gobert A P et al., 2004), a gram negative pathogenic bacterium that is the rodent equivalent of enteropathogenic E. coli that causes diarrhea in humans.
# Since arginase I and iNOS were both abundantly expressed in the colitis tissues and L-Arg was completely metabolized, we investigated the effect of administration of 1% L-Arg in the drinking water. In wild type (WT) mice, C. rodentium colitis induced a high level of mortality that began on day 9 post-infection (FIG. 31A). In WT animals treated with L-Arg, mortality was inhibited by 42% and 62% compared to mice receiving water alone, after 12 and 14 days of infection, respectively (FIG. 31A). By Cox regression analysis, WT mice treated with L-Arg had only a 31% hazard of death compared with mice receiving water alone (p<0.0009). In iNOS^−/− mice, no deaths were observed, with or without L-Arg (FIG. 31A). […] Note that the weight loss of WT mice is underestimated, since only the weights of animals still alive could be included. […] There was an additive effect of iNOS deletion and L-Arg administration, with a 68% decrease in colon weight. Neither iNOS deletion nor L-Arg treatment affected colon weight in uninfected control mice. Importantly, these changes were closely paralleled by changes in colon histology (FIG. 32).
# In uninfected control mice, BEC or DFMO had no effect (Table I). […] In fact, experiments had to be terminated early at 10 days post-infection, because of deaths and severe disease at this point.
compound,measurement,setting,value
CSCC[C@H](NC(=O)[C@H](CCCNC(=N)N)NC(=O)[C@H](CCCNC(=N)N)NC(C)=O)C(=O)N[C@@H](CCCCN)C(=O)N[C@@H](Cc1c[nH]c2ccccc12)C(=O)N[C@@H](CCCCN)C(=O)N[C@@H](CCCCN)C(=O)N[C@@H](CC(C)C)C(=O)N[C@@H](CCCNC(=N)N)C(=O)N[C@H](C(=O)N[C@@H](CCCNC(=N)N)C(=O)N[C@@H](CC(C)C)C(=O)N[C@@H](C)C(=O)N[C@@H](CO)C(=O)N[C@@H](Cc1c[nH]cn1)C(=O)N[C@@H](CC(C)C)C(=O)N[C@@H](CCCNC(=N)N)C(=O)N[C@@H](CCCCN)C(=O)N[C@@H](CC(C)C)C(=O)N[C@@H](CCCNC(=N)N)C(=O)N[C@@H](CCCCN)C(=O)N[C@@H](CCCNC(=N)N)C(=O)N[C@@H](CC(C)C)C(=O)N[C@@H](CC(C)C)C(N)=O)C(C)C [antp (52-58)],IC50,[1],11 µM
"apoE 137-149: truncated apoE peptide, residues 137-149 (LASHLRKLRKRLL; UniProt P02649 155-167, looked up, fragment)",Activity at 25 μM in suppression of NO / TNFα release,[2],failed to show activity
"apoE 134-149: truncated apoE peptide, residues 134-149 (RVRLASHLRKLRKRLL; UniProt P02649 152-167, looked up, fragment)",Fold less potent than apoE 130-150,[2],2.5 fold
Ac-RGGRLAYLRRRWAVLGRLRVRLASHLRKLRKRLL-NH2 (N-terminus and C-terminus assumed) [SynB5],In vivo Therapeutic window time expanded?,[3],No; Tested at 6 X
same,IC50,[1],3.2 µM
same,IC50,"[1]; read-out: IC50 TNFα, in vitro",4.2 µM
"ApoE 139-149: truncated apoE peptide, residues 139-149 (SHLRKLRKRLL; UniProt P02649 157-167, looked up, fragment)",Activity at 25 μM in suppression of NO / TNFα release,[2],failed to show activity
"ApoE 135-149: truncated apoE peptide, residues 135-149 (VRLASHLRKLRKRLL; UniProt P02649 153-167, looked up, fragment)",Fold less potent than apoE 130-150,[2],5 fold
Ac-RRLSYSRRRFLRVRLASHLRKLRKRLL-NH2 (N-terminus and C-terminus assumed) [SynB3],"Rotorod latency, single tail vein injection 2 hours post TBI",[3]; 2 hours post traumatic brain injury,significantly improves outcome from head trauma
same,In vivo Therapeutic window time expanded?,[3],Yes; tested at 4 X
same,IC50,[1],5.9 µM
same,IC50,"[1]; read-out: IC50 TNFα, in vitro",5.1 µM
"apoE 130-148: truncated apoE peptide, residues 130-148 (TEELRVRLASHLRKLRKRL; UniProt P02649 148-166, looked up, fragment)",Activity at 25 μM in suppression of NO / TNFα release,[2],failed to show activity
Ac-ASHLRKL-Aib-KRLL-NH2 (Ac-ASHLRKL[Aib]KRLL-NH2; SMILES CC(=O)N[C@@H](C)C(=O)N[C@@H](CO)C(=O)N[C@@H](Cc1c[nH]cn1)C(=O)N[C@@H](CC(C)C)C(=O)N[C@@H](CCCNC(=N)N)C(=O)N[C@@H](CCCCN)C(=O)N[C@@H](CC(C)C)C(=O)NC(C)(C)C(=O)N[C@@H](CCCCN)C(=O)N[C@@H](CCCNC(=N)N)C(=O)N[C@@H](CC(C)C)C(=O)N[C@@H](CC(C)C)C(N)=O) [COG432],Rotorod performance (100% is performance prior to TBI),"[3]; 4 mg/kg, started 2 hours post TBI, day 5 post TBI",about 80%
"apoE 136-149: truncated apoE peptide, residues 136-149 (RLASHLRKLRKRLL; UniProt P02649 154-167, looked up, fragment)",Fold less potent than apoE 130-150,[2],8 fold
Ac-ASHLRKLRKRLL-NH2 [apoE 138-149],Activity at 25 μM in suppression of NO / TNFα release,[2],failed to show activity
"RQIKIWFQNRRMKWKK (Protein transduction domain conjugate Antp) [antennapedia prefix peptide, portion of antennapedia that serves as a prefix to COG133, reference compound]",Inhibition of cytokine production induced by MOG or LPS/IFN-γ,[4],showed no activity
"NCCCC(N)(C(=O)O)C(F)F (centres unmarked) [DFMO, -difluoromethylornithine]",Colon wt (% Total Body wt),[5]; C. rodentium,"1.35 ± 0.12^b,d % Total Body wt"
same,Histology Score,[5]; C. rodentium,"9.54 ± 0.68^b,d"
same,Body wt (% Total Body wt),[5]; C. rodentium,"78.6 ± 0.4^b,c % Total Body wt"
same,Colon wt (% Total Body wt),[5]; PBS (uninfected),0.61 ± 0.07 % Total Body wt
same,Histology Score,[5]; PBS (uninfected),0.75 ± 0.25
same,Body wt (% Total Body wt),[5]; PBS (uninfected),101.3 ± 2.6 % Total Body wt
same,Survival of C. rodentium-infected mice,[5]; in the drinking water,significant loss of survival
same,Effect in uninfected control mice,"[5]; mouse, in vivo",had no effect
LRVRLASHLRKLRKRLA [L149A],EC50,"[2]; read-out: Structure activity in the COG133 peptide from single amino acid replacements, binding and/or suppression of NO or TNFα release, compared with 3.5 μM EC50 of COG133",> 3.5 µM
Ac-RRRRRRRRLRVRLASHLRKLRKRLL-NH2 (N-terminus and C-terminus assumed) [polyArg (8R)],IC50,[1],4 µM
same,IC50,"[1]; read-out: IC50 TNFα, in vitro",4.2 µM
"apoE 130-147: truncated apoE peptide, residues 130-147 (TEELRVRLASHLRKLRKR; UniProt P02649 148-165, looked up, fragment)",Activity at 25 μM in suppression of NO / TNFα release,[2],failed to show activity
